Laboratory results published in PubChem BioAssay (NCI).
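Values below derive from 48-hour exposures of cells grown in 96-well plates, with endpoints linearly interpolated between the two concentrations bracketing the appropriate inhibition level. TGI marks complete inhibition of growth.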

Columns and labels:
Experiment in all cases: inhibition of tumour cell growth, NCI panel, 48 h
A498 renal = test system: A498 renal
SW-620 colon = test system: SW-620 colon
SNB-75 CNS = test system: SNB-75 CNS
ACHN renal = test system: ACHN renal
OVCAR-5 ovarian = test system: OVCAR-5 ovarian
DMS 114 small cell lung = test system: DMS 114 small cell lung
NCI-H23 lung = test system: NCI-H23 lung
SN12C renal = test system: SN12C renal
RXF 393 renal = test system: RXF 393 renal
SK-MEL-28 melanoma = test system: SK-MEL-28 melanoma
UACC-257 melanoma = test system: UACC-257 melanoma
HOP-92 NSCLC = test system: HOP-92 NSCLC
SF-295 CNS = test system: SF-295 CNS
M19-MEL melanoma = test system: M19-MEL melanoma
LXFL 529 NSCLC = test system: LXFL 529 NSCLC
RPMI-8226 leukemia = test system: RPMI-8226 leukemia
SF-268 CNS = test system: SF-268 CNS
KM20L2 colon = test system: KM20L2 colon
CAKI-1 renal = test system: CAKI-1 renal
SR leukemia = test system: SR leukemia
SF-539 CNS = test system: SF-539 CNS
M14 melanoma = test system: M14 melanoma
SNB-19 CNS = test system: SNB-19 CNS
HCT-15 colon = test system: HCT-15 colon
786-0 renal = test system: 786-0 renal
MOLT-4 leukemia = test system: MOLT-4 leukemia
SK-OV-3 ovarian = test system: SK-OV-3 ovarian
A549 NSCLC = test system: A549 NSCLC
UO-31 renal = test system: UO-31 renal
IGROV1 ovarian = test system: IGROV1 ovarian
DLD-1 colon = test system: DLD-1 colon
CCRF-CEM leukemia = test system: CCRF-CEM leukemia
OVCAR-4 ovarian = test system: OVCAR-4 ovarian
KM12 colon = test system: KM12 colon
SK-MEL-2 melanoma = test system: SK-MEL-2 melanoma
UACC-62 melanoma = test system: UACC-62 melanoma
TK-10 renal = test system: TK-10 renal
COLO 205 colon = test system: COLO 205 colon
MALME-3M melanoma = test system: MALME-3M melanoma
HL-60(TB) leukemia = test system: HL-60(TB) leukemia
SNB-78 CNS = test system: SNB-78 CNS
K-562 leukemia = test system: K-562 leukemia
U251 CNS = test system: U251 CNS
HT29 colon = test system: HT29 colon
XF 498 CNS = test system: XF 498 CNS
HOP-62 NSCLC = test system: HOP-62 NSCLC
HCC-2998 colon = test system: HCC-2998 colon
DMS 273 small cell lung = test system: DMS 273 small cell lung
NCI-H522 lung = test system: NCI-H522 lung
EKVX NSCLC = test system: EKVX NSCLC
HCT-116 colon = test system: HCT-116 colon
NCI-H226 lung = test system: NCI-H226 lung
LOX IMVI melanoma = test system: LOX IMVI melanoma
SK-MEL-5 melanoma = test system: SK-MEL-5 melanoma
OVCAR-8 ovarian = test system: OVCAR-8 ovarian
OVCAR-3 ovarian = test system: OVCAR-3 ovarian
HOP-18 NSCLC = test system: HOP-18 NSCLC

C=CCN(CC=C)CC(C(C)=O)C(c1ccccc1)c1c(O)c2ccccc2oc1=O (stereo not given)
TGI (A498 renal): > 100 µM | TGI (SW-620 colon): > 100 µM | TGI (SNB-75 CNS): > 100 µM | TGI (ACHN renal): > 100 µM | TGI (OVCAR-5 ovarian): > 100 µM | TGI (DMS 114 small cell lung): > 100 µM | TGI (NCI-H23 lung): > 100 µM | TGI (SN12C renal): > 100 µM | TGI (RXF 393 renal): > 100 µM | TGI (SK-MEL-28 melanoma): > 100 µM | TGI (UACC-257 melanoma): > 100 µM | TGI (HOP-92 NSCLC): > 100 µM | TGI (SF-295 CNS): 95.8 µM | TGI (M19-MEL melanoma): > 100 µM | TGI (LXFL 529 NSCLC): > 100 µM | TGI (RPMI-8226 leukemia): > 100 µM | TGI (SF-268 CNS): > 100 µM | TGI (KM20L2 colon): > 100 µM | TGI (CAKI-1 renal): > 100 µM | TGI (SR leukemia): > 100000 nM | TGI (SF-539 CNS): > 100 µM | TGI (M14 melanoma): > 100 µM | TGI (SNB-19 CNS): > 100 µM | TGI (HCT-15 colon): > 100 µM | TGI (786-0 renal): > 100 µM | TGI (MOLT-4 leukemia): > 100 µM | TGI (SK-OV-3 ovarian): > 100 µM | TGI (A549 NSCLC): > 100 µM | TGI (UO-31 renal): > 100 µM | TGI (IGROV1 ovarian): > 100 µM | TGI (DLD-1 colon): > 100 µM | TGI (CCRF-CEM leukemia): > 100 µM | TGI (OVCAR-4 ovarian): > 100 µM | TGI (KM12 colon): 37.9 µM | TGI (SK-MEL-2 melanoma): > 100 µM | TGI (UACC-62 melanoma): > 100 µM | TGI (TK-10 renal): > 100 µM | TGI (COLO 205 colon): > 100 µM | TGI (MALME-3M melanoma): > 100 µM | TGI (HL-60(TB) leukemia): > 100 µM | TGI (SNB-78 CNS): > 100 µM | TGI (K-562 leukemia): > 100 µM | TGI (U251 CNS): > 100 µM | TGI (HT29 colon): > 100 µM | TGI (XF 498 CNS): > 100 µM | TGI (HOP-62 NSCLC): > 100 µM | TGI (HCC-2998 colon): > 100 µM | TGI (DMS 273 small cell lung): > 100 µM | TGI (NCI-H522 lung): > 100 µM | TGI (EKVX NSCLC): > 100 µM | TGI (HCT-116 colon): > 100 µM | TGI (NCI-H226 lung): > 100 µM | TGI (LOX IMVI melanoma): > 100 µM | TGI (SK-MEL-5 melanoma): > 100 µM | TGI (OVCAR-8 ovarian): > 100 µM

CNC(=O)OCc1[nH]ccc2c(C)c3nc4ccc(OC)cc4c3cc12
TGI (A498 renal): 30.7 µM | TGI (SW-620 colon): > 26.9 µM | TGI (SNB-75 CNS): > 100 µM | TGI (ACHN renal): 18 µM | TGI (OVCAR-5 ovarian): > 100 µM | TGI (NCI-H23 lung): > 22.2 µM | TGI (SN12C renal): > 100 µM | TGI (RXF 393 renal): 8.72 µM | TGI (SK-MEL-28 melanoma): > 81 µM | TGI (UACC-257 melanoma): > 100 µM | TGI (HOP-92 NSCLC): > 100 µM | TGI (SF-295 CNS): > 100 µM | TGI (M19-MEL melanoma): > 100 µM | TGI (LXFL 529 NSCLC): > 100 µM | TGI (RPMI-8226 leukemia): 10.6 µM | TGI (OVCAR-3 ovarian): > 67.8 µM | TGI (SF-268 CNS): > 100 µM | TGI (KM20L2 colon): > 27.5 µM | TGI (CAKI-1 renal): > 100 µM | TGI (SR leukemia): 1980 nM | TGI (SF-539 CNS): > 31.8 µM | TGI (M14 melanoma): > 100 µM | TGI (SNB-19 CNS): > 25.1 µM | TGI (HCT-15 colon): > 21.9 µM | TGI (786-0 renal): 20.5 µM | TGI (MOLT-4 leukemia): 3.89 µM | TGI (SK-OV-3 ovarian): > 100 µM | TGI (A549 NSCLC): > 100 µM | TGI (UO-31 renal): > 53.9 µM | TGI (IGROV1 ovarian): > 100 µM | TGI (DLD-1 colon): > 100 µM | TGI (CCRF-CEM leukemia): 13.6 µM | TGI (OVCAR-4 ovarian): 66.1 µM | TGI (KM12 colon): > 23.9 µM | TGI (SK-MEL-2 melanoma): > 48 µM | TGI (UACC-62 melanoma): > 56.7 µM | TGI (TK-10 renal): > 79.1 µM | TGI (COLO 205 colon): > 28.1 µM | TGI (MALME-3M melanoma): > 77.8 µM | TGI (HOP-18 NSCLC): 34.1 µM | TGI (HL-60(TB) leukemia): 19 µM | TGI (SNB-78 CNS): > 100 µM | TGI (K-562 leukemia): > 22.5 µM | TGI (U251 CNS): > 59.5 µM | TGI (HT29 colon): > 100 µM | TGI (XF 498 CNS): > 33.8 µM | TGI (HOP-62 NSCLC): 56 µM | TGI (HCC-2998 colon): > 53.5 µM | TGI (DMS 273 small cell lung): > 100 µM | TGI (NCI-H522 lung): > 20.7 µM | TGI (EKVX NSCLC): > 100 µM | TGI (HCT-116 colon): > 100 µM | TGI (NCI-H226 lung): 18.7 µM | TGI (SK-MEL-5 melanoma): 12.8 µM | TGI (OVCAR-8 ovarian): > 24.9 µM
